What is called IC50 is the concentration needed to halve the response being measured. A word on the melting point: it is the temperature of the solid-liquid transition.

Molecules are shown by their SMILES. Where only a bound is given, the exact number is not on record here.

The results in this text go back to patent publication US20100305113A1, “Substituted Imidazopyridazines as Lipid Kinase Inhibitors” (priority 2007, published 2010).

One data set deals with T1, PI3K gamma (Homo sapiens, UniProt P48736).
T1 construct: His tag (C); made in house; host or cells: construct from Roger Williams lab (MRC LMB); baculovirus (pVL1393); Tn5 (Trichoplusia ni) or TiniPro insect cells
T1 sequence (P48736 144-1102 limits assumed): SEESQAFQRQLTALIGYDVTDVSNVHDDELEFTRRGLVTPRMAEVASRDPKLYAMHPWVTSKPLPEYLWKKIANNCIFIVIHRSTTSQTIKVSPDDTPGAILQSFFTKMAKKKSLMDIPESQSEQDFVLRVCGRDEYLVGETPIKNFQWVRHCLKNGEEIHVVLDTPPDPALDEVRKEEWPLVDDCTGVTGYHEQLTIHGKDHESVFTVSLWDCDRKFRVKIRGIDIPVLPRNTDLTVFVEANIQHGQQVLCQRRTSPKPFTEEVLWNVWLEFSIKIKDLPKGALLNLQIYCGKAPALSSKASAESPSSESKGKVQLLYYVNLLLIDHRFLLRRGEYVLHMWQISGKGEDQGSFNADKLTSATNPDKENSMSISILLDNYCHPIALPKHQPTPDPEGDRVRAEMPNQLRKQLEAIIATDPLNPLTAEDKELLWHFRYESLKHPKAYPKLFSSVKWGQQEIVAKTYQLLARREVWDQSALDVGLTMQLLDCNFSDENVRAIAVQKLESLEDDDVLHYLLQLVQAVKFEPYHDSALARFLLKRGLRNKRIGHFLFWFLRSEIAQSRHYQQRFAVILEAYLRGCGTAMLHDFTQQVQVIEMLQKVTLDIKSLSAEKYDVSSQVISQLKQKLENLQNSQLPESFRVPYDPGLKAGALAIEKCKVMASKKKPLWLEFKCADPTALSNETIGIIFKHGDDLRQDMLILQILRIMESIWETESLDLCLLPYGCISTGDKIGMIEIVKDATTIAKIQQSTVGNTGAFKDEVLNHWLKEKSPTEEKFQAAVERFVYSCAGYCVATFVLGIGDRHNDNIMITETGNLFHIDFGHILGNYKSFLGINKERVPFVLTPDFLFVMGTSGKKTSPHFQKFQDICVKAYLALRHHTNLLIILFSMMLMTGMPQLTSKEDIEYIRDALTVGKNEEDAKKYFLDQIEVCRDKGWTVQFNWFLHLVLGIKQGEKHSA
The data set is described as follows: PI3K gamma enzymatic assay (Kinase-Glo luminescence). The following applies: Enzymatic Data. In kind it is biochemical. The gist of the method: (§1)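 Kinase-Glo ATP-depletion luminescence with 1 μM ATP and 10 μg/mL phosphatidylinositol in pH 7.5 Tris buffer; 10 nM PI3Kα incubated 60 min, 150 nM PI3Kγ 120 min, at room temperature. IC50 by 4-parameter logistic fit over 8 concentrations.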
(In general: In Kinase-Glo more light means more ATP remaining.)

The next data set has as its target T2, PI3K delta (Homo sapiens, UniProt O00329).
T2 construct: for the full-length p110-d subunit are generated and fused by overlapping PCR; p85(iSH2) fusion partner (same polypeptide; see partner chain) (N); Gly linker (N); His tag (C); made in house; host or cells: baculovirus; Tn5 (Trichoplusia ni) or TiniPro insect cells
Put plainly: PI3K delta enzymatic assay (Kinase-Glo luminescence). The format is biochemical. The following applies: Enzymatic Data. The procedure, abridged: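 10 nM PI3Kδ p85(iSH2)-Gly linker-full-length p110δ His-tagged construct with 10 µg/mL phosphatidylinositol and 1 µM ATP. Buffer: 10 mM Tris pH 7.5, 3 mM MgCl2, 50 mM NaCl, 0.05% CHAPS, 1 mM DTT; 60 min RT. Kinase-Glo luminescence; IC50 from 4-parameter logistic fit over 8 concentrations.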

For a further data set, the target named is T3, PI3K beta (Homo sapiens, UniProt P42338).
T3 construct: for the full-length p110-b subunit are generated and fused by overlapping PCR; p85(iSH2) fusion partner (same polypeptide; see partner chain) (N); Gly linker (N); His tag (C); made in house; host or cells: baculovirus; Tn5 (Trichoplusia ni) or TiniPro insect cells
T3 sequence (P42338 with tags, fused parts or gaps limits assumed): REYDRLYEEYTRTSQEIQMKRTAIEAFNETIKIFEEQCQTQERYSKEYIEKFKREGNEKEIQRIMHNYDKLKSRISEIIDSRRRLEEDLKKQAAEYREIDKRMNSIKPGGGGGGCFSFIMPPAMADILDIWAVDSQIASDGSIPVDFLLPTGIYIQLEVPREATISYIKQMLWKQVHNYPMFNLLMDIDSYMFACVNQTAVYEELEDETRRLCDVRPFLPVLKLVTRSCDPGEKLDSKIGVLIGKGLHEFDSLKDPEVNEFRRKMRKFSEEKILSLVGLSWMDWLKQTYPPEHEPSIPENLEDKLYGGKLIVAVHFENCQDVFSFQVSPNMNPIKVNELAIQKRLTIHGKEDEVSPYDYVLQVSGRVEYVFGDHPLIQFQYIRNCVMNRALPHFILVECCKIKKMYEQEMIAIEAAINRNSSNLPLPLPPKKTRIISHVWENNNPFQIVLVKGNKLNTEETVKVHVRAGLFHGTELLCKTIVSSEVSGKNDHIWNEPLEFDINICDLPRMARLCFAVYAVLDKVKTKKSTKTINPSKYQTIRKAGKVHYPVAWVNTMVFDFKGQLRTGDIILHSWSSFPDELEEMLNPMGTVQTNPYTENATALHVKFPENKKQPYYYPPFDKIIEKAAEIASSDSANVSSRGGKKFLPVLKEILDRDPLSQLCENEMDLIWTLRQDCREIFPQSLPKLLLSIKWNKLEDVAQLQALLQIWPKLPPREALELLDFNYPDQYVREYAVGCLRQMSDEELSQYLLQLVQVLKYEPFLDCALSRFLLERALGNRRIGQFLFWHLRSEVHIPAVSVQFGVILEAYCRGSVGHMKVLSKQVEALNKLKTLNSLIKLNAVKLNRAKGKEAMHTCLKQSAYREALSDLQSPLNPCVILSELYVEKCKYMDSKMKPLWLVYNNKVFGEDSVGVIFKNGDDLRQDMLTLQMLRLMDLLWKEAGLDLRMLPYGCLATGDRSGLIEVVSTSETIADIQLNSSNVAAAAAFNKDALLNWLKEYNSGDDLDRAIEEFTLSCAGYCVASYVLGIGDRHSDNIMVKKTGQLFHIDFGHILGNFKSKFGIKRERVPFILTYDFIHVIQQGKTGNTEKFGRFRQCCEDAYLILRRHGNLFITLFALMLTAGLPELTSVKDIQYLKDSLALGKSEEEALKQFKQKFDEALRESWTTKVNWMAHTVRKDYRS
Put plainly: PI3K beta enzymatic assay (Kinase-Glo luminescence). In kind it is biochemical. The following applies: Enzymatic Data. The procedure, abridged:
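Full-length p110β with p85 iSH2 (His-tagged) at 25 nM, 10 μg/mL phosphatidylinositol and 1 μM ATP, in pH 7.5 Tris with 3 mM MgCl2, 60 min at room temperature. Remaining ATP read by Kinase-Glo luminescence; IC50 from 4-parameter logistic fit over 8 concentrations.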

A further data set addresses T4, PI3K alfa (Homo sapiens, UniProt P42336).
T4 construct: p85(iSH2) fusion partner (same polypeptide; see partner chain) (N); 12x Gly linker (N); His tag (C); made in house; host or cells: baculovirus; Tn5 (Trichoplusia ni) or TiniPro insect cells
Put plainly: PI3K alfa enzymatic assay (Kinase-Glo luminescence). In kind it is biochemical. The following applies: Enzymatic Data. The gist of the method:
as §1

T2 sequence (O00329 with tags, fused parts or gaps limits assumed): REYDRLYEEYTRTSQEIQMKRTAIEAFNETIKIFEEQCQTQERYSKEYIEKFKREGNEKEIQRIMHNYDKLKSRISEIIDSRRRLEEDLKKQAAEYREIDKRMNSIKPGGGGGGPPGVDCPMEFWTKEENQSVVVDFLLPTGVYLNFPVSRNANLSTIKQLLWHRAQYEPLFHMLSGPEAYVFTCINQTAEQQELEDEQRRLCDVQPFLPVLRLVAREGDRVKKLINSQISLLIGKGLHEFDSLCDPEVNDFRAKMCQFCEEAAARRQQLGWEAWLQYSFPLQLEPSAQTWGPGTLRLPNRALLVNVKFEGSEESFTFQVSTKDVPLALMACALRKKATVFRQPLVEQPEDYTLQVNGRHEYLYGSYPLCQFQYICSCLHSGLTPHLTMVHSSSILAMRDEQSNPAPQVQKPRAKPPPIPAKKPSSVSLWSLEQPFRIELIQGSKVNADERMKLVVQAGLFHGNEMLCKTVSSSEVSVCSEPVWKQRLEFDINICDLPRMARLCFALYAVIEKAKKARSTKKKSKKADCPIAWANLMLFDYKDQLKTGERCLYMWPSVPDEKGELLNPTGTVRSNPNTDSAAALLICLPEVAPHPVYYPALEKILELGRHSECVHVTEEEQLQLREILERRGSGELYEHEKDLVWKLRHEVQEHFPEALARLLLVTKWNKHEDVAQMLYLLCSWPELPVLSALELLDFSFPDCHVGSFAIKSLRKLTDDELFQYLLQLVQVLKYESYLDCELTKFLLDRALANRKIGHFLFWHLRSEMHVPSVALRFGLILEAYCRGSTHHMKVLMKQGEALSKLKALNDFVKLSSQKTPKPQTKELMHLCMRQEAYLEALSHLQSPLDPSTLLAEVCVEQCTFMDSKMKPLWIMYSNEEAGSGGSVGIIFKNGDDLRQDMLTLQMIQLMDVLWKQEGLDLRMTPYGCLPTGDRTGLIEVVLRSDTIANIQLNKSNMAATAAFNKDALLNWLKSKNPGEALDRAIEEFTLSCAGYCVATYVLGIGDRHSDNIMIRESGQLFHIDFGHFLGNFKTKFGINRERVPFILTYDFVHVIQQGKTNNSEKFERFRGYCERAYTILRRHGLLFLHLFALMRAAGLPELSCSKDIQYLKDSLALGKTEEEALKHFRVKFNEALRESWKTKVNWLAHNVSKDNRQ
T4 sequence (P42336 with tags, fused parts or gaps limits assumed): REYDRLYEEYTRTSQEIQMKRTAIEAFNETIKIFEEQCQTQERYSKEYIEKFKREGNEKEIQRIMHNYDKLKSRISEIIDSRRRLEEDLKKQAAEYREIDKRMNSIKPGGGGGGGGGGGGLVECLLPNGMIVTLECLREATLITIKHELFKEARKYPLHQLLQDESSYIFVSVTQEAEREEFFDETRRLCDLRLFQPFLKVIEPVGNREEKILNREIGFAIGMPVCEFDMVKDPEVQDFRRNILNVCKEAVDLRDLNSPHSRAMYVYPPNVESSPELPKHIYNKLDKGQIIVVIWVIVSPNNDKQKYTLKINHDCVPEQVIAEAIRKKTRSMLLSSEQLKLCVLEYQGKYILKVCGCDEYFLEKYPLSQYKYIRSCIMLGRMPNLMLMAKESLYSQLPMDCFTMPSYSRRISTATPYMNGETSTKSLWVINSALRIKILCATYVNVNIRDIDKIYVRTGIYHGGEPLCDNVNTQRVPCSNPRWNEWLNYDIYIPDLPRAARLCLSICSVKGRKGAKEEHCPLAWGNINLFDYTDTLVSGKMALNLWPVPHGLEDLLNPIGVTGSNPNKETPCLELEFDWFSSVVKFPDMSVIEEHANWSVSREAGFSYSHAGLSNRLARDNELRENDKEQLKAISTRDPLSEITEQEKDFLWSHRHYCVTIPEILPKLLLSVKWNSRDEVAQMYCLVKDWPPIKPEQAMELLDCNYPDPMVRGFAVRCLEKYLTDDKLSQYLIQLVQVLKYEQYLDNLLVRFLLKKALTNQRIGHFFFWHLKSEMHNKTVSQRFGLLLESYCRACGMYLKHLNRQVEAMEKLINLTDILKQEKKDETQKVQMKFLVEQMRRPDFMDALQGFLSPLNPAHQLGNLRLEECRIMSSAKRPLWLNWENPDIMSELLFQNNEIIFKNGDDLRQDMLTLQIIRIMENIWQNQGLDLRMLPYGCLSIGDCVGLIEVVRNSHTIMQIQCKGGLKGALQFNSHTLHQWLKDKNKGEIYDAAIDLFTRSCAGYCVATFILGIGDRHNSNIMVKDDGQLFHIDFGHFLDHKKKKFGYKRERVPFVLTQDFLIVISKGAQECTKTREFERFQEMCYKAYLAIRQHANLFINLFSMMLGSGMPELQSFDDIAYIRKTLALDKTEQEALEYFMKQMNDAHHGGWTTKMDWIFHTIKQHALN

As to `Cc1nc2ccc(-c3ccc(OCC4(NC(=O)C5CC5)COC4)cc3)nn2c1-c1cnc(N)c(C(F)(F)F)c1` [Example 110, Cyclopropanecarboxylic acid (3-{4-[3-(6-amino-5-trifluoromethyl-pyridin-3-yl)-2-methyl-imidazo[1,2-b]pyridazin-6-yl]-phenoxymethyl}-oxetan-3-yl)-amide], the melting point was in the range of 191 to 193 °C. Besides, the concentration for half-maximal inhibition (IC50) at PI3K gamma is 2080 nM. Moreover, the 50% inhibitory concentration (IC50) at PI3K delta was determined as 1590 nM. Besides, the concentration for half-maximal inhibition (IC50) on PI3K beta stood at 8190 nM. Also, the half-maximal inhibitory concentration (IC50) on PI3K alfa was 126 nM.

As for `Cc1nc2ccc(-c3ccc(OCC4(N)COC4)cc3)nn2c1-c1cnc(N)c(C(F)(F)F)c1` [Example 111, 5-{6-[4-(3-Amino-oxetan-3-ylmethoxy)-phenyl]-2-methyl-imidazo[1,2-b]pyridazin-3-yl}-3-trifluoromethyl-pyridin-2-ylamine], the melting point was 198 to 200 °C. For the same compound, the half-maximal inhibitory concentration (IC50) on PI3K gamma worked out at 1190 nM. Also, the IC50 on PI3K delta is 895 nM. The IC50 at PI3K beta is 2390 nM. Also, the half-maximal inhibitory concentration (IC50) at PI3K alfa amounted to 131 nM.

`Cc1nc2ccc(-c3ccc(OCCCN4CCCC4=O)cc3)nn2c1-c1cnc(N)c(C(F)(F)F)c1` [Example 105, 1-(3-{4-[3-(6-Amino-5-trifluoromethyl-pyridin-3-yl)-2-methyl-imidazo[1,2-b]pyridazin-6-yl]-phenoxy}-propyl)-pyrrolidin-2-one]: the 50% inhibitory concentration (IC50) turned out to be 518 nM on PI3K gamma, 273 nM on PI3K delta, 6260 nM at PI3K beta and 83 nM on PI3K alfa.

`COc1ccc(-c2ccc3nc(C)c(-c4ccnc(NCc5ccccc5)n4)n3n2)cc1OC` [Example 86, Benzyl-{4-[6-(3,4-dimethoxy-phenyl)-2-methyl-imidazo[1,2-b]pyridazin-3-yl]-pyrimidin-2-yl}-amine]: the IC50 at PI3K gamma is 8510 nM; on PI3K delta, 4000 nM; at PI3K beta, > 9100 nM; at PI3K alfa, 2150 nM.

For the compound `COc1ccc(-c2ccc3nc(C)c(-c4ccc(O)nc4)n3n2)cc1OC` [Example 8, 5-[6-(3,4-dimethoxy-phenyl)-2-methyl-imidazo[1,2-b]pyridazin-3-yl]-pyridin-2-ol], the half-maximal inhibitory concentration (IC50) at PI3K gamma was found to be 303 nM; at PI3K delta, 456 nM; at PI3K beta, 1170 nM; at PI3K alfa, 42 nM.

In the case of `COc1ccc(-c2ccc3nc(C)c(-c4ccc(C#N)nc4)n3n2)cc1OC` [Example 4], the IC50 at PI3K gamma is 345 nM; on PI3K delta it was 152 nM; at PI3K beta it was 1210 nM; on PI3K alfa, 44 nM.

In the case of `COc1cc(-c2ccc3nc(C)c(-c4ccc(S(C)(=O)=O)cc4)n3n2)ccc1OC1CCN(C(=O)OC(C)(C)C)CC1` [Example 98, 4-{4-[3-(4-Methanesulfonyl-phenyl)-2-methyl-imidazo[1,2-b]pyridazin-6-yl]-2-methoxy-phenoxy}-piperidine-1-carboxylic acid tert-butyl ester], the 50% inhibitory concentration (IC50) on PI3K gamma was > 9100 nM; at PI3K delta, > 9100 nM; on PI3K beta, > 9100 nM; at PI3K alfa, 9090 nM.

`Cc1nc2ccc(-c3ccc(OCC4(NC(=O)C(F)(F)F)COC4)cc3)nn2c1-c1cnc(N)c(C(F)(F)F)c1` [Example 116, N-(3-{4-[3-(6-Amino-5-trifluoromethyl-pyridin-3-yl)-2-methyl-imidazo[1,2-b]pyridazin-6-yl]-phenoxymethyl}-oxetan-3-yl)-2,2,2-trifluoro-acetamide] returned a melting point of 214 to 216 °C. Further, at PI3K gamma, the IC50 worked out at 4660 nM. At PI3K delta, the half-inhibitory concentration (IC50) turned out to be 937 nM. The half-maximal inhibitory concentration (IC50) at PI3K beta is 4240 nM. The 50% inhibitory concentration (IC50) on PI3K alfa was found to be 59 nM.

In the case of `COc1ccc(-c2ccc3nc(C)c(-c4ncccc4C)n3n2)cc1OC` [Example 16, 6-(3,4-Dimethoxy-phenyl)-2-methyl-3-(3-methyl-pyridin-2-yl)-imidazo[1,2-b]pyridazine], the IC50 at PI3K gamma, at PI3K delta, at PI3K beta and on PI3K alfa was > 25000 nM throughout.

Turning to `Cc1nc2ccc(-c3ccc(OCCCN4CCCC4=O)cc3)nn2c1-c1ccc(S(C)(=O)=O)cc1` [Example 106, 1-(3-{4-[3-(4-Methanesulfonyl-phenyl)-2-methyl-imidazo[1,2-b]pyridazin-6-yl]-phenoxy}-propyl)-pyrrolidin-2-one], the concentration for half-maximal inhibition (IC50) is 1060 nM at PI3K gamma, 1040 nM at PI3K delta, > 9100 nM on PI3K beta and 2200 nM on PI3K alfa.

In the case of `COC(=O)NC1(COc2ccc(-c3ccc4nc(C)c(-c5cnc(N)c(C(F)(F)F)c5)n4n3)cc2)COC1` [Example 115, (3-{4-[3-(6-Amino-5-trifluoromethyl-pyridin-3-yl)-2-methyl-imidazo[1,2-b]pyridazin-6-yl]-phenoxymethyl}-oxetan-3-yl)-carbamic acid methyl ester], the melting point was in the range of 202 to 204 °C. For the same compound, the IC50 on PI3K gamma was 3160 nM. Also, the IC50 on PI3K delta stood at 1970 nM. The half-maximal inhibitory concentration (IC50) at PI3K beta was > 9100 nM. Also, the IC50 on PI3K alfa was 295 nM.

For `COc1cc(-c2ccc3nc(C)c(-c4cnc(N)c(C(F)(F)F)c4)n3n2)ccc1OCCNC(=O)Nc1cccnc1` [Example 51], the half-inhibitory concentration (IC50) at PI3K gamma is 2520 nM; on PI3K delta, 1660 nM; on PI3K beta, > 9100 nM; on PI3K alfa it was 28 nM.

As for `COc1cc(-c2ccc3nc(C)c(-c4cnc(N)c(C(F)(F)F)c4)n3n2)ccc1OCCN1CCNC1=O` [Example 104, 1-(2-{4-[3-(6-Amino-5-trifluoromethyl-pyridin-3-yl)-2-methyl-imidazo[1,2-b]pyridazin-6-yl]-2-methoxy-phenoxy}-ethyl)-imidazolidin-2-one], the concentration for half-maximal inhibition (IC50) at PI3K gamma was determined as 477 nM; at PI3K delta, 255 nM; on PI3K beta, 2080 nM; on PI3K alfa, 31 nM.

Consider `COc1cc(-c2ccc3nc(C)c(-c4cnc(N)c(C(F)(F)F)c4)n3n2)ccc1OCCNC(=O)c1ccc(N2CCOCC2)cc1` [Example 94, N-(2-{4-[3-(6-Amino-5-trifluoromethyl-pyridin-3-yl)-2-methyl-imidazo[1,2-b]pyridazin-6-yl]-2-methoxy-phenoxy}-ethyl)-4-morpholin-4-yl-benzamide], for which the concentration for half-maximal inhibition (IC50) on PI3K gamma is > 9100 nM; on PI3K delta, 6780 nM; on PI3K beta, > 9100 nM; at PI3K alfa, 367 nM.

Take `COc1cc(-c2ccc3nc(C)c(-c4cnc(N)c(C(F)(F)F)c4)n3n2)ccc1OCCCN` [Example 25, 5-{6-[4-(3-Amino-propoxy)-3-methoxy-phenyl]-2-methyl-imidazo[1,2-b]pyridazin-3-yl}-3-trifluoromethyl-pyridin-2-ylamine]: the IC50 amounted to 507 nM at PI3K gamma, 24 nM on PI3K delta, 193 nM on PI3K beta and 15 nM on PI3K alfa.

Take `COc1ccc(-c2ccc3nc(C)c(-c4ccn(S(=O)(=O)c5cccc(C#N)c5)n4)n3n2)cc1OC` [Example 23, 3-{3-[6-(3,4-Dimethoxy-phenyl)-2-methyl-imidazo[1,2-b]pyridazin-3-yl]-pyrazole-1-sulfonyl}-benzonitrile]: the IC50 on PI3K gamma is 511 nM; at PI3K delta, 124 nM; on PI3K beta, > 9100 nM; at PI3K alfa, 136 nM.

Consider `COc1ccc(-c2ccc3nc(C)c(-c4ccc(N)nc4)n3n2)cc1OC` [Example 7], for which the half-inhibitory concentration (IC50) on PI3K gamma came to 419 nM; on PI3K delta it was 694 nM; on PI3K beta, 976 nM; at PI3K alfa, 96 nM.

Regarding `COc1ccc(-c2ccc3nc(C)c(-c4cnccn4)n3n2)cc1OC` [Example 17, 6-(3,4-Dimethoxy-phenyl)-2-methyl-3-pyrazin-2-yl-imidazo[1,2-b]pyridazine], the IC50 on PI3K gamma came to 797 nM; at PI3K delta it was 2020 nM; at PI3K beta it was 4480 nM; at PI3K alfa it was 181 nM.
